IC50 data for nine molecules are collected here from patent publication US20260199323A1, “LIGAND COMPOUNDS FOR E3 UBIQUITIN LIGASE, PROTEIN DEGRADERS DEVELOPED ON BASIS OF LIGAND COMPOUNDS, AND USES THEREOF” (GLUETACS THERAPEUTICS (SHANGHAI) CO., LTD., priority 2021, published 2026).

Where two headings read alike, the source gives them in different places.

One assay has as its system CCRF-CEM. As to the kind of experiment: CCK-8 tumor cell proliferation, CCRF-CEM. The class given is cell-based, Human. Particulars: Homo sapiens, CCRF-CEM, read-out: IC50 inhibiting proliferation of tumor cells, CCRF-CEM. In outline: (§1)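 IC50 derived from CCK-8 cell viability after compound treatment. Dilution series: 10 concentrations, 5-fold apart, from 10 μM. Compound added 24 h post-seeding; culture at 37 °C in 5% CO2.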

Another assay relates to SU-DHL-4. As to the kind of experiment: CCK-8 tumor cell proliferation, SU-DHL-4. The class given is cell-based, Human. Particulars: Homo sapiens, Table 19, IRAK4 inhibitor based, read-out: IC50 inhibiting proliferation of tumor cells, SU-DHL-4. The method, then:
(§2) The tumor cells used herein were cultured in a cell culture medium listed in table 4 at 37° C. in an incubator with 5% CO2. Prior to experimentation, all cells used were correctly identified by STR profiling, and tested negative for mycoplasma through routine screenings.
(§3) IC50 values of the compounds of the present disclosure (including the compounds in Tables 1 and 3, and compounds of examples) were measured using the Meilun Cell Counting Kit-8 kit from Dalian Meilun Biotech Co., Ltd. Assay details are as follows: tumor cells were seeded in a 96-well plate at a density listed in Table 5. After 24 h, 100 μL of the inoculated cells were treated with 0.5 μL of the compounds of the present disclosure (including the compounds in Tables 1 and 3, and compounds of examples) at 10 different successively decreasing concentrations (starting at the highest concentration of 10 μM; 5-fold serial dilutions). After the cells were treated with the compounds of the present disclosure for a period of time, the cell viability detection reagent was added to the culture medium for cell viability assessment according to the instructions provided with the CCK-8 kit. […] The growth inhibition of the compounds of the present disclosure on cells was plotted by Prism Graphpad software, and the IC50 values of the compounds of the present disclosure were calculated therefrom.

A further assay concerns CAL-62. Description: CCK-8 tumor cell proliferation, CAL-62. The class given is cell-based, Human. Conditions: Homo sapiens; Table 19, IRAK4 inhibitor based; CAL-62; read-out: IC50 inhibiting proliferation of tumor cells, CAL-62. In outline:
as §1

The next assay relates to SW620. As to the kind of experiment: CCK-8 tumor cell proliferation, SW620. The class given is cell-based, Human. Conditions: Homo sapiens, SW-620; Table 19, IRAK4 inhibitor based; SW620; read-out: IC50 inhibiting proliferation of tumor cells, SW620. Summed up: as §1
In another assay the test system is LNcap. Description: CCK-8 tumor cell proliferation, LNcap. Conditions: Homo sapiens. Type of assay: cell-based, Human. The protocol:
as §2, §3

The next assay deals with Jurkat. As to the kind of experiment: CCK-8 tumor cell proliferation, Jurkat. Type of assay: cell-based, Human. Conditions: Homo sapiens, Table 19, IRAK4 inhibitor based, read-out: IC50 inhibiting proliferation of tumor cells, Jurkat. In outline:
as §1

A further assay relates to SR. Description: CCK-8 tumor cell proliferation, SR. The class given is cell-based, Human. Conditions: Homo sapiens; Table 20, BCL-2 inhibitor based; SR; read-out: IC50 inhibiting proliferation of tumor cells, SR. In outline:
as §1

Another assay concerns MDA-MB-231. As to the kind of experiment: CCK-8 tumor cell proliferation, MDA-MB-231. Type of assay: cell-based, Human. Conditions: Homo sapiens; Table 20, BCL-2 inhibitor based; MDA-MB-231; read-out: IC50 inhibiting proliferation of tumor cells, MDA-MB-231. Summed up:
as §1

The subject of a further assay is MM.1S. Description: CCK-8 tumor cell proliferation, MM.1S. Type of assay: cell-based. Particulars: Homo sapiens, MM1.S, MM.1S, read-out: IC50 inhibiting proliferation of tumor cells, MM.1S. Summed up:
as §1

Another assay concerns HCC827. As to the kind of experiment: CCK-8 tumor cell proliferation, HCC827. Conditions: Homo sapiens; Table 20, BCL-2 inhibitor based; HCC827; read-out: IC50 inhibiting proliferation of tumor cells, HCC827. Type of assay: cell-based, Human. The protocol: The tumor cells used herein were cultured in a cell culture medium listed in table 4 at 37° C. in an incubator with 5% CO2.
as §3, with “After” for “IC50 values of the compounds of the present disclosure (including the compounds in Tables 1 and 3, and compounds of examples) were measured using the Meilun Cell Counting Kit-8 kit from Dalian Meilun Biotech Co., Ltd. Assay details are as follows: tumor cells were seeded in a 96-well plate at a density listed in Table 5. After”

In the next assay the test system is MM.1R. As to the kind of experiment: CCK-8 tumor cell proliferation, MM.1R. Type of assay: cell-based. Particulars: Table 20, BCL-2 inhibitor based, read-out: IC50 inhibiting proliferation of tumor cells, MM.1R. The method, then:
as §2, §3

The next assay concerns Mino. As to the kind of experiment: CCK-8 tumor cell proliferation, Mino. Type of assay: cell-based, Human. Particulars: Homo sapiens; Table 19, IRAK4 inhibitor based; Mino; read-out: IC50 inhibiting proliferation of tumor cells, Mino. In outline:
as §1

The subject of a further assay is MV-4-11. Description: CCK-8 tumor cell proliferation, MV-4-11. The class given is cell-based, Human. Conditions: Homo sapiens, MV4-11; Table 19, IRAK4 inhibitor based; MV-4-11; read-out: IC50 inhibiting proliferation of tumor cells, MV-4-11. The protocol: as §2, §3
[1] abbreviates: Table 19, IRAK4 inhibitor based.
Where [2] appears, read: Table 19, IRAK4 inhibitor based, Lncap, read-out: IC50 inhibiting proliferation of tumor cells, Lncap.
Where [3] appears, read: Table 20, BCL-2 inhibitor based.
Where [4] appears, read: Table 20, BCL-2 inhibitor based, LNcap, read-out: IC50 inhibiting proliferation of tumor cells, LNcap.

Turning to `O=C1CCC(N2Cc3c(ccc(CN4CCC(n5cc(NC(=O)c6coc(-c7ccnc(NCC8CC8)c7)n6)c(C(F)F)n5)CC4)c3F)C2=O)C(=O)N1` (centres unmarked) [GT-04154, 2-(2-((cyclopropylmethyl)amino)pyridin-4-yl)-N-(3-(difluoromethyl)-1-(1-((2-(2,6-dioxopiperidin-3-yl)-4-fluoro-1-oxoisoindolin-5-yl)methyl)piperidin-4-yl)-1H-pyrazol-4-yl)oxazole-4-carboxamide], the IC50 with CCRF-CEM (setting [1]), in the assay with SU-DHL-4, in the assay with CAL-62, in the assay with SW620, with LNcap (setting [2]) and in the assay on Jurkat was less than 50 nM in each case.

`O=C1CCC(N2Cc3c(ccc(CN4CCC(n5cc(NC(=O)c6coc(-c7ccnc(NCC(F)(F)F)c7)n6)c(C(F)F)n5)CC4)c3F)C2=O)C(=O)N1` (centres unmarked) [GT-04098, N-(3-(difluoromethyl)-1-(1-((2-(2,6-dioxopiperidin-3-yl)-4-fluoro-1-oxoisoindolin-5-yl)methyl)piperidin-4-yl)-1H-pyrazol-4-yl)-2-(2-((2,2,2-trifluoroethyl)amino)pyridin-4-yl)oxazole-4-carboxamide]: the IC50 in the assay with CCRF-CEM (setting [1]), in the assay with SU-DHL-4, with CAL-62, with SW620, in the assay on LNcap (setting [2]) and in the assay with Jurkat was less than 50 nM each time.

As to `CC1(C)CCC(c2ccc(Cl)cc2)=C(CN2CCN(c3ccc(C(=O)NS(=O)(=O)c4ccc(N[C@H](CCN5CCN(Cc6ccc7c(c6F)CN(C6CCC(=O)NC6=O)C7=O)CC5)CSc5ccccc5)c(S(=O)(=O)C(F)(F)F)c4)cc3)CC2)C1` (stereo partly drawn) [GT-03478, 4-(4-((4′-chloro-4,4-dimethyl-3,4,5,6-tetrahydro-[1,1′-biphenyl]-2-yl)methyl)piperazin-1-yl)-N-((4-(((2R)-4-(4-((2-(2,6-dioxopiperidin-3-yl)-4-fluoro-1-oxoisoindolin-5-yl)methyl)piperazin-1-yl)-1-(phenylthio)butan-2-yl)amino)-3-((trifluoromethyl)sulfonyl)phenyl)sulfonyl)benzamide], the IC50 in the assay on SR, with MDA-MB-231, with CCRF-CEM (setting [3]), in the assay on MM.1S (setting [3]), with HCC827 and with LNcap (setting [4]) was less than 50 nM each time. Moreover, the IC50 in the assay on MM.1R was less than 50 nM.

On to `O=C1CCC(N2Cc3cc(CN4CCC(n5cc(NC(=O)c6coc(-c7ccnc(NCC8CC8)c7)n6)c(C(F)F)n5)CC4)ccc3C2=O)C(=O)N1` (centres unmarked) [GT-04153, 2-(2-((cyclopropylmethyl)amino)pyridin-4-yl)-N-(3-(difluoromethyl)-1-(1-((2-(2,6-dioxopiperidin-3-yl)-1-oxoisoindolin-5-yl)methyl)piperidin-4-yl)-1H-pyrazol-4-yl)oxazole-4-carboxamide], for which the IC50 in the assay on CCRF-CEM (setting [1]), with SU-DHL-4, in the assay with CAL-62, in the assay on SW620, in the assay with LNcap (setting [2]) and with Jurkat was less than 50 nM each time.

`O=C1CCC(N2Cc3cc(CN4CCC(n5cc(NC(=O)c6coc(-c7ccnc(NCC8CC8)c7)n6)c(C(F)F)n5)CC4)c(F)cc3C2=O)C(=O)N1` (centres unmarked) [GT-04171, 2-(2-((cyclopropylmethyl)amino)pyridin-4-yl)-N-(3-(difluoromethyl)-1-(1-((2-(2,6-dioxopiperidin-3-yl)-6-fluoro-1-oxoisoindolin-5-yl)methyl)piperidin-4-yl)-1H-pyrazol-4-yl)oxazole-4-carboxamide]: the IC50 in the assay on CCRF-CEM (setting [1]), in the assay with SU-DHL-4, in the assay with CAL-62, in the assay on SW620, in the assay on LNcap (setting [2]) and with Jurkat was less than 50 nM each time.

As to `O=C1CCC(N2C(=O)c3ccc(CN4CCC(n5cc(NC(=O)c6cnn7ccc(N8CCOCC8)nc67)c(C(F)F)n5)CC4)cc3C2=O)C(=O)N1` (centres unmarked) [GT-03815, N-(3-(difluoromethyl)-1-(1-((2-(2,6-dioxopiperidin-3-yl)-1,3-dioxoisoindolin-5-yl)methyl)piperidin-4-yl)-1H-pyrazol-4-yl)-5-morpholinopyrazolo[1,5-a]pyrimidine-3-carboxamide], the IC50 lay within 1000 to 5000 nM in the assay on Mino and 5000 to 10000 nM with SU-DHL-4.

Take `CC1(C)CCC(c2ccc(Cl)cc2)=C(CN2CCN(c3ccc(C(=O)NS(=O)(=O)c4ccc(N[C@H](CCN5CCN(Cc6cc(F)c7c(c6)CN(C6CCC(=O)NC6=O)C7=O)CC5)CSc5ccccc5)c(S(=O)(=O)C(F)(F)F)c4)cc3)CC2)C1` (stereo partly drawn) [GT-03479, 4-(4-((4′-chloro-4,4-dimethyl-3,4,5,6-tetrahydro-[1,1′-biphenyl]-2-yl)methyl)piperazin-1-yl)-N-((4-(((2R)-4-(4-((2-(2,6-dioxopiperidin-3-yl)-7-fluoro-1-oxoisoindolin-5-yl)methyl)piperazin-1-yl)-1-(phenylthio)butan-2-yl)amino)-3-((trifluoromethyl)sulfonyl)phenyl)sulfonyl)benzamide]: the IC50 with SR is less than 50 nM; in the assay with MDA-MB-231, less than 50 nM; in the assay on CCRF-CEM (setting [3]) it was less than 50 nM; with MM.1S (setting [3]), less than 50 nM; in the assay on HCC827, 100 to 500 nM; in the assay with LNcap (setting [4]), less than 50 nM. Besides, the IC50 in the assay on MM.1R was less than 50 nM.

In the case of `CC1(C)CCC(CN2CCN(c3ccc(C(=O)NS(=O)(=O)c4ccc(NCC5CCOCC5)c([N+](=O)[O-])c4)c(Oc4cnc5[nH]ccc5c4)c3)CC2)=C(c2ccc(Cl)cc2)C1` [ABT-199, Venetoclax, reference compound], the IC50 in the assay with SR was 500 to 1000 nM; in the assay on MDA-MB-231, 1000 to 5000 nM; in the assay with CCRF-CEM (Table 20, given as number) it was more than 10000 nM; with MM.1S (Table 20, given as number), more than 10000 nM; with HCC827 it was 5000 to 10000 nM; with LNcap (setting [4]), 1000 to 5000 nM.

As for `O=C1CCC(N2Cc3cc(CN4CCC(n5cc(NC(=O)c6cnn7ccc(N8CCOCC8)nc67)c(C(F)F)n5)CC4)cc(F)c3C2=O)C(=O)N1` (centres unmarked) [GT-03812, N-(3-(difluoromethyl)-1-(1-((2-(2,6-dioxopiperidin-3-yl)-7-fluoro-1-oxoisoindolin-5-yl)methyl)piperidin-4-yl)-1H-pyrazol-4-yl)-5-morpholinopyrazolo[1,5-a]pyrimidine-3-carboxamide], the IC50 was 100 to 500 nM in the assay on Mino, 100 to 500 nM with MV-4-11, 1000 to 5000 nM in the assay with SU-DHL-4 and 1000 to 5000 nM with SW620.
